In article PMC6476926, “Dichloro-Phenyl-Benzotriazoles: A New Selective Class of Human Respiratory Syncytial Virus Entry Inhibitors” (Frontiers in Chemistry, 2019):

Assays:
RSV = assay: microbe, parasite or virus in culture; format: cell-based, Human Respiratory Syncytial Virus (RSV) strain A2; settings: human respiratory syncytial virus, Vero 76, read-out: EC50 RSV
HIV-1IIIB = assay: microbe, parasite or virus in culture; format: cell-based, Human Immunodeficiency Virus type-1 (HIV-1); settings: Human immunodeficiency virus 1, MT4, read-out: EC50 HIV-1IIIB
BVDV = assay: microbe, parasite or virus in culture; format: cell-based; settings: Bovine viral diarrhea virus isolates and strains, MDBK, read-out: EC50 BVDV
YFV = assay: microbe, parasite or virus in culture; format: cell-based; settings: Yellow fever virus, BHK, read-out: EC50 YFV
Reo-1 = assay: microbe, parasite or virus in culture; format: cell-based, Reovirus type-1 (Reo-1); settings: Reovirus sp., BHK, read-out: EC50 Reo-1
CV-B5 = assay: microbe, parasite or virus in culture; format: cell-based, Human Enterovirus B [coxsackie type B5 (CV-B5)]; settings: Enterovirus B, CVB5, Vero 76, read-out: EC50 CV-B5
Sb-1, VSV, VV, HSV-1 = assay: organism not typed; format: cell-based; settings: Vero 76, read-out: EC50 Sb-1, VSV, VV, HSV-1
in vitro = settings: cattle (Bos taurus)
[1] = Cytotoxicity, MTT method, BHK cells; settings: Syrian hamster (Mesocricetus auratus)
[2] = Cytotoxicity, MTT method, MT-4 cells; settings: human
[3] = Cytotoxicity, MTT method, Vero-76 cells; settings: African green monkey (Cercopithecus aethiops)

| SMILES | EC50 (RSV) | EC50 (HIV-1IIIB) | EC50 (BVDV) | EC50 (YFV) | EC50 (Reo-1) | EC50 (CV-B5) | EC50 (Sb-1, VSV, VV, HSV-1) | CC50 (in vitro) | CC50 [1] | CC50 [2] | CC50 at 5 days [3] | melting point | CC50 ([2]; MT-4 cells (mock-infected)) | CC50 ([3]; Vero-76 cells (mock-infected)) |
| --- | --- | --- | --- | --- | --- | --- | --- | --- | --- | --- | --- | --- | --- | --- |
| Nc1ccc(-n2nnc3cc(Cl)c(Cl)cc32)cc1 [1a, 1-(4-aminophenyl)-5,6-dichlorobenzotriazole] | 20 µM | > 100 µM | 75 µM | > 100 µM | > 100 µM | 85 µM | > 100 µM | > 100 µM | > 100 µM | > 100 µM | > 100 µM |  |  |  |
| Nc1ccc(-n2nc3cc(Cl)c(Cl)cc3n2)cc1 [1b, 2-(4-aminophenyl)-5,6-dichlorobenzotriazole] | 6 µM | > 52 µM | 20 µM | > 100 µM | > 100 µM | > 100 µM | > 100 µM | ≥ 100 µM | > 100 µM | 52 µM | > 100 µM |  |  |  |
| C[C@@]1(O)[C@H](O)[C@@H](CO)O[C@H]1n1cnc2c(=O)[nH]c(N)nc21 [2MG, 2’-C-methyl-guanosine, reference compound] |  |  | 1.1 ± 0.1 µM | 1.9 ± 0.1 µM | 0.7 ± 0.2 µM |  |  | > 100 µM | > 100 µM |  |  |  |  |  |
| CC(=O)Nc1ccc(-n2nnc3cc(Cl)c(Cl)cc32)cc1 [5a, N-[4-(5,6-dichloro-1H-benzo[d][1,2,3]triazol-1-yl)phenyl]acetamide] | 3 µM | > 35 µM | > 43 µM | > 53 µM | > 53 µM | 17 µM | > 30 µM | 43 µM | 53 µM | 35 µM | 30 µM | 209 to 211 °C |  |  |
| CCC(=O)Nc1ccc(-n2nnc3cc(Cl)c(Cl)cc32)cc1 [5b, N-[4-(5,6-dichloro-1H-benzo[d][1,2,3]triazol-1-yl)phenyl]propionamide] | 4 µM | > 28 µM | > 100 µM | > 54 µM | > 54 µM | > 30 µM | > 30 µM | > 100 µM | 54 µM | 28 µM | 30 µM | 175 to 177 °C |  |  |
| CCCC(=O)Nc1ccc(-n2nnc3cc(Cl)c(Cl)cc32)cc1 [5c, N-[4-(5,6-dichloro-1H-benzo[d][1,2,3]triazol-1-yl)phenyl]butanamide] | 4 µM | > 60 µM | > 100 µM | > 100 µM | > 100 µM | 9 µM | > 100 µM | > 100 µM | > 100 µM | 60 µM | 10 µM | 202 to 204 °C |  |  |
| CCCC(=O)N(C(=O)CCC)c1ccc(-n2nnc3cc(Cl)c(Cl)cc32)cc1 [5d, N-butyryl-N-[4-(5,6-dichloro-1H-benzo[d][1,2,3]triazol-1-yl)phenyl] butyramide] | > 30 µM | > 35 µM | > 14 µM | > 16 µM | > 16 µM | > 20 µM | > 20 µM | 14 µM | 16 µM | 35 µM | 20 µM | 202 to 204 °C |  |  |
| CC(=O)Nc1ccc(-n2nc3cc(Cl)c(Cl)cc3n2)cc1 [6a, N-[4-(5,6-dichloro-2H-benzo[d][1,2,3]triazol-2-yl)phenyl]acetamide] | > 100 µM | > 100 µM | > 100 µM | > 100 µM | > 100 µM | > 100 µM | > 100 µM | > 100 µM | > 100 µM | > 100 µM | > 100 µM | > 290 °C |  |  |
| CCC(=O)Nc1ccc(-n2nc3cc(Cl)c(Cl)cc3n2)cc1 [6b, N-[4-(5,6-dichloro-2H-benzo[d][1,2,3]triazol-2-yl)phenyl]propanamide] | > 100 µM | > 100 µM | > 100 µM | > 100 µM | > 100 µM | > 100 µM | > 100 µM | > 100 µM | > 100 µM | > 100 µM | > 100 µM | 258 to 260 °C |  |  |
| CCCC(=O)Nc1ccc(-n2nc3cc(Cl)c(Cl)cc3n2)cc1 [6c, N-[4-(5,6-dichloro-2H-benzo[d][1,2,3]triazol-2-yl)phenyl]butanamide] | > 100 µM | > 100 µM | > 100 µM | > 100 µM | > 100 µM | > 100 µM | > 100 µM | > 100 µM | > 100 µM | > 100 µM | > 100 µM | 243 to 245 °C |  |  |
| CC(=O)N(C(C)=O)c1ccc(-n2nc3cc(Cl)c(Cl)cc3n2)cc1 [6d, N-acetyl-N-[4-(5,6-dichloro-2H-benzo[d][1,2,3]triazol-2-yl)phenyl]acetamide] | 40 µM | > 33 µM | > 100 µM | > 72 µM | > 100 µM | > 100 µM | > 100 µM | 100 µM | 72 µM | 33 µM | > 100 µM | 224 to 226 °C |  |  |
| CCC(=O)N(C(=O)CC)c1ccc(-n2nc3cc(Cl)c(Cl)cc3n2)cc1 [6e, N-propionyl-N-[4-(5,6-dichloro-2H-benzo[d][1,2,3]triazol-2-yl)phenyl] propionamide] | 6 µM | > 15 µM | > 72 µM | > 26 µM | > 26 µM | 61 µM | > 100 µM | 72 µM | 26 µM | 15 µM | > 100 µM | 238 to 240 °C |  |  |
| CCCC(=O)N(C(=O)CCC)c1ccc(-n2nc3cc(Cl)c(Cl)cc3n2)cc1 [6f, N-butyryl-N-[4-(5,6-dichloro-2H-benzo[d][1,2,3]triazol-2-yl)phenyl] butyramide] | 6 µM | > 24 µM | > 84 µM | > 62 µM | > 26 µM | 33 µM | > 100 µM | 84 µM | 62 µM | 24 µM | > 100 µM | 130 to 133 °C |  |  |
| O=C(Nc1ccc(-n2nnc3cc(Cl)c(Cl)cc32)cc1)c1ccccc1 [7a, N-[4-(5,6-dichloro-1H-benzo[d][1,2,3]triazol-1-yl)phenil]benzamide] | 60 µM | > 100 µM | > 100 µM | > 44 µM | > 44 µM | > 100 µM | > 100 µM | > 100 µM | 44 µM | > 100 µM | > 100 µM | 250 to 252 °C |  |  |
| Cc1ccc(C(=O)Nc2ccc(-n3nnc4cc(Cl)c(Cl)cc43)cc2)cc1 [7b, N-[4-(5,6-dichloro-1H-benzo[d][1,2,3]triazol-1-yl)phenyl]-4-methylbenzamide] | > 100 µM | > 100 µM | > 100 µM | > 100 µM | > 100 µM | > 100 µM | > 100 µM | > 100 µM | > 100 µM | > 100 µM | > 100 µM | 226 to 228 °C |  |  |
| COc1ccc(C(=O)Nc2ccc(-n3nnc4cc(Cl)c(Cl)cc43)cc2)cc1 [7c, N-[4-(5,6-dichloro-1H-benzo[d][1,2,3]triazol-1-yl)phenyl]-4-methoxybenzamide] | 35 µM | > 33 µM | > 100 µM | > 100 µM | > 100 µM | > 100 µM | > 100 µM | > 100 µM | > 100 µM | 33 µM | > 100 µM | 193 to 195 °C |  |  |
| COc1cc(C(=O)Nc2ccc(-n3nnc4cc(Cl)c(Cl)cc43)cc2)cc(OC)c1OC [7d, N-[4-(5,6-dichloro-1H-benzo[d][1,2,3]triazol-1-yl)phenyl]-3,4,5-trimethoxybenzamide] | 5 µM | > 77 µM | > 100 µM | 78 µM | > 100 µM | > 90 µM | > 90 µM | > 100 µM | > 100 µM | 77 µM | 90 µM | 212 to 213 °C |  |  |
| Cc1ccc(NC(=O)Nc2ccc(-n3nc4cc(Cl)c(Cl)cc4n3)cc2)cc1 [10f, 1-[4-(5,6-dichloro-2H-benzo[d][1,2,3]triazol-2-yl)phenyl]-3-(4-methylphenyl)urea] | > 100 µM | > 100 µM | > 100 µM | > 100 µM | > 100 µM | > 100 µM | > 100 µM | > 100 µM | > 100 µM | > 100 µM | > 100 µM |  |  |  |
| O=C1Nc2ccc(Cl)cc2[C@@](C#CC2CC2)(C(F)(F)F)O1 [EFV, Efavirenz, reference compound] |  | 0.002 ± 0.0002 µM |  |  |  |  |  |  |  |  |  |  | 40 µM |  |
| Cc1cc(CCCOc2c(C)cc(-c3noc(C(F)(F)F)n3)cc2C)on1 [PCL, Pleconaril, reference compound] |  |  |  |  |  | 0.005 ± 0.001 µM |  |  |  |  |  |  |  | > 100 µM |
